In paper PMC7767178 (International Journal of Molecular Sciences, 2020):
Read-outs that look alike come from different tables or passages of the source. Positions of bridges follow the written chain, without caps; N, C: chain ends. Residues, ends and D or L forms follow the SMILES beside them.

Legend:
A. veronii X-1-06909 = test: microbe, parasite or virus in culture; format: cell-based
Source text: (§1) All experiments were repeated three times.

[1] = system: Candida albicans CMCC98001; test: microbe, parasite or virus in culture; format: cell-based
Source text: as §1

E. coli CVCC1515 = test: microbe, parasite or virus in culture; format: cell-based
Source text: as §1

E. coli CVCC25922 = test: microbe, parasite or virus in culture; format: cell-based; details: E. coli CVCC25922, broth dilution, 37 °C, 16–18 h, three experiments
Source text: as §1

Escherichia coli CVCC195 = test: microbe, parasite or virus in culture; format: cell-based; details: Escherichia coli CVCC195, broth dilution, 37 °C, 16–18 h, three experiments
Source text: as §1

S. enteritidis CVCC3377 = test: microbe, parasite or virus in culture; format: cell-based
Source text: as §1

S. pullorum CVCC1789 = test: microbe, parasite or virus in culture; format: cell-based
Source text: as §1

S. pullorum CVCC1809 = test: microbe, parasite or virus in culture; format: cell-based; details: S. pullorum CVCC1809, broth dilution, 37 °C, 16–18 h, three experiments
Source text: as §1

S. pullorum CVCC533 = test: microbe, parasite or virus in culture; format: cell-based
Source text: as §1

[2] = system: Staphylococcus aureus ATCC43300; test: microbe, parasite or virus in culture; format: cell-based
Source text: as §1

E. coli CVCCO157 = test: MIC, microtiter broth dilution; format: cell-based; details: 37 °C, 16–18 h, three experiments
Source text: as §1

S. hyicus 437-2 = format: cell-based
A. veronii ACCC61732 [3] = test: Time-killing curves; format: cell-based; details: 2× MIC; 1 × 10^5 CFU/mL, colony counting, 0–24 h
Procedure: Time-killing curves were performed as previously described. […] The sample of 100 μL was taken from each flask at 0, 0.5, 1, 2, 4, 6, 8, 10, 20, and 24 h, respectively, and serially diluted for colony counting. PBS and CIP were used as the negative and positive control, respectively.

A. veronii ACCC61732 [4] = test: Post-antibiotic effect (PAE); format: cell-based; details: for PAE: 2 h exposure, 1000-fold dilution, 37 °C, triplicate
Procedure: The samples were taken from flasks for counting each hour until bacterial cultures became turbid. The untreated bacteria severed as controls. The PAE was calculated using the following equation: PAE = T − C, where T is the time (h) required for the CFU in the test culture to increase by 10-fold from the count immediately after the drug removal and C is the corresponding time (h) for the control. The experiment was performed in triplicate.

A. veronii ACCC61732 [5] = test: Resistance development, 30 serial passages; format: cell-based; details: A. veronii ACCC61732, 30 passages (30 days)
Procedure: The development of bacterial resistance of peptides was performed by the MIC assays. […] GEN, CIP, and PMB were used as controls. […] The MIC values were measured as described above. The serial passaging was repeated for 30 days.

A. veronii ACCC61732 [6] = test: Outer membrane permeabilization, NPN assay; format: cell-based; details: NPN fluorescence, 1×–4× MIC
Procedure: The outer membrane permeabilization abilities of peptides were determined using the fluorescent NPN assay. Mid-log phase A. veronii ACCC61732 was collected by centrifugation, washed twice, and then suspended in N-2-hydroxyethylpiperazine-n-2-ethane sulfonic acid (HEPES) buffer (pH 7.4) to an OD600nm = 0.4. […] Fluorescence intensity was recorded until no further increase with a microplate reader (excitation/emission, 328/438 nm).

A. veronii ACCC61732 [7] = test: Inner membrane permeability, PI staining, flow cytometry; format: cell-based
Procedure: To analyze effects of peptides on the inner membrane, A. veronii ACCC61732 cells were cultured to mid-log phase at 37 °C in MHB medium, washed thrice with PBS, and resuspended in the PBS buffer to 1 × 10^8 CFU/mL. […] After fixation with PI, the samples were detected by a fluorescent inverted microscope and FACS Calibur Flow Cytometer (BD, San Jose, CA, USA), respectively. Cell Quest Pro software (BD, San Jose, CA, USA) was used for the data analysis.

[8] = system: A. veronii ACCC61732 in biofilm; format: cell-based; details: 2 h
Procedure: The mid-log phase A. veronii ACCC61732 cells (1 × 10^8 CFU/mL) were inoculated into in the 96-well plates and cultured for 24 h at 37 °C. The plates were washed twice with PBS. […] PBS was used as the negative control. The plates were treated with ultrasound for 5 min and the viable bacteria were counted on the TSA plates.

IL-10 = test: Serum cytokine, ELISA, peritonitis model; format: in vivo; details: 5 μmol/kg, 24 h after treatment, range over mice
Procedure: (§2) Sera and organs (livers, kidneys, spleens, and lungs) were collected from the mice at 24 h post-treatment. The organs were homogenized in sterile PBS to evaluate bacterial translocation by colony counting. The levels of cytokines (TNF-α, IL-1β, IL-6, and IL-10) in sera were detected using the ELISA kits.

IL-1β = test: Serum cytokine, ELISA, peritonitis model; format: in vivo; details: 5 μmol/kg, 24 h after treatment, range over mice
Procedure: as §2

IL-6 = test: Serum cytokine, ELISA, peritonitis model; format: in vivo; details: 5 μmol/kg, 24 h after treatment, range over mice
Procedure: as §2

TNF-α = test: Serum cytokine, ELISA, peritonitis model; format: in vivo; details: 5 μmol/kg, 24 h after treatment, range over mice
Procedure: as §2

Salmonella = details: range over the strains of Table 2

CC(C)[C@H](N)C(=O)N[C@@H](Cc1ccccc1)C(=O)N[C@@H](C)C(=O)N[C@@H](Cc1c[nH]c2ccccc12)C(=O)N[C@@H](CC(N)=O)C(=O)N[C@H](C(=O)N[C@H]1CSSC[C@@H](C(=O)N[C@@H](Cc2c[nH]cn2)C(=O)N[C@@H](CCCNC(=N)N)C(=O)N[C@@H](CCCNC(=N)N)C(=O)N[C@@H](C)C(=O)N[C@@H](CC(N)=O)C(N)=O)NC(=O)[C@H](C(C)C)NC(=O)[C@H](CCCNC(=N)N)NC(=O)[C@H](C(C)C)NC(=O)[C@H](C(C)C)NC(=O)[C@H](CC(N)=O)NC(=O)[C@H](CCCNC(=N)N)NC(=O)[C@H](Cc2ccc(O)cc2)NC(=O)[C@H](C(C)C)NC1=O)C(C)C [V112N6NH2] (H-VFAWNVCVYRNVVRVCHRRAN-NH2; disulfide 7-16 (inferred))
MIC (A. veronii X-1-06909; A. veronii X-1-06909, broth dilution, 37 °C, 16–18 h, three experiments): 32 µg/mL | MIC (A. veronii X-1-06909; read-out: MIC): 12.51 µM | MIC ([1]; CMCC98001, read-out: MIC): >50.02 µM | MIC ([1]; Candida albicans CMCC98001, broth dilution, 37 °C, 16–18 h, three experiments): >128 µg/mL | MIC (E. coli CVCC1515; CVCC1515, read-out: MIC): 1.56 µM | MIC (E. coli CVCC1515; E. coli CVCC1515, broth dilution, 37 °C, 16–18 h, three experiments): 4 µg/mL | MIC (E. coli CVCC25922): 8 µg/mL | MIC (E. coli CVCC25922; read-out: MIC): 3.13 µM | MIC (Escherichia coli CVCC195): 8 µg/mL | MIC (Escherichia coli CVCC195; read-out: MIC): 3.13 µM | MIC (S. enteritidis CVCC3377; CVCC3377, read-out: MIC): 0.78 µM | MIC (S. enteritidis CVCC3377; S. enteritidis CVCC3377, broth dilution, 37 °C, 16–18 h, three experiments): 2 µg/mL | MIC (S. pullorum CVCC1789; CVCC1789, read-out: MIC): 6.25 µM | MIC (S. pullorum CVCC1789; S. pullorum CVCC1789, broth dilution, 37 °C, 16–18 h, three experiments): 16 µg/mL | MIC (S. pullorum CVCC1809): 8 µg/mL | MIC (S. pullorum CVCC1809; read-out: MIC): 3.13 µM | MIC (S. pullorum CVCC533; CVCC533, read-out: MIC): 6.25 µM | MIC (S. pullorum CVCC533; S. pullorum CVCC533, broth dilution, 37 °C, 16–18 h, three experiments): 16 µg/mL | MIC ([2]; ATCC43300, read-out: MIC): 12.5 µM | MIC ([2]; Staphylococcus aureus ATCC43300, broth dilution, 37 °C, 16–18 h, three experiments): 32 µg/mL | MIC (E. coli CVCCO157): 8 µg/mL | MIC (E. coli CVCCO157; read-out: MIC): 3.13 µM | MIC (S. hyicus 437-2): 12.5 µM | MIC (S. hyicus 437-2; S. hyicus 437-2 (clinical isolate, pig farm), broth dilution, 37 °C, 16–18 h, three experiments): 32 µg/mL | time to completely kill A. veronii ACCC61732 (A. veronii ACCC61732 [3]): unable completely kill | PAE (A. veronii ACCC61732 [4]; 1× MIC): 0.74 ± 0.02 h | PAEs, range over 1×–4× MIC (A. veronii ACCC61732 [4]; 1× to 4× MIC): 0.74 to 2.15 h | PAE (A. veronii ACCC61732 [4]; 2× MIC): 1.48 ± 0.05 h | PAE (A. veronii ACCC61732 [4]; 4× MIC): 2.15 ± 0.13 h | increase of MIC after 30 serial passages (A. veronii ACCC61732 [5]): one-fold | ability to penetrate the outer membrane (A. veronii ACCC61732 [6]): best ability to penetrate the outer membrane | Permeability (PI-positive cells) (A. veronii ACCC61732 [7]; 1× MIC, 0.5 h): 0% | Permeability (PI-positive cells) (A. veronii ACCC61732 [7]; 1× MIC, 2 h): 1.8% | Permeability (PI-positive cells) (A. veronii ACCC61732 [7]; 2× MIC, 0.5 h): 0% | Permeability (PI-positive cells) (A. veronii ACCC61732 [7]; 2× MIC, 2 h): 5.67% | Permeability (PI-positive cells) (A. veronii ACCC61732 [7]; 4× MIC, 0.5 h): 4.28% | Permeability (PI-positive cells) (A. veronii ACCC61732 [7]; 4× MIC, 2 h): 23.93% | bacteria in biofilm killed [8]; 8: 46.21% | bacteria in biofilm killed [8]; 16: 52.04% | serum level of IL-10 (IL-10): 16.48 to 19.60 pg/mL | serum level of IL-1β (IL-1β): 16.41 to 24.86 pg/mL | serum level of IL-6 (IL-6): 133.08 to 150.00 pg/mL | serum level of TNF-α (TNF-α): 52.05 to 59.01 pg/mL | MIC values against Salmonella (Salmonella): 0.78 to 6.25 µM
